# From PMC10296415, “Methyl-Thiol-Bridged Oxadiazole and Triazole Heterocycles as Inhibitors of NF-κB in Chronic Myelogenous Leukemia Cells” (Biomedicines, 2023)
# Legend:
# [1] = tested on: survivin, MMP-9, Bcl-2/xl, VEGF, COX-2, PARP; assay: Western blot of NF-κB regulated proteins and PARP in CML cells; type: cell-based, human; conditions: 4c 30 µM pretreatment, TNFα 0.5 nM for 0, 6, 12, 24 h
# Experimental: (§1) CML cells were treated with compound 4c, harvested, and the cell lysates were obtained. The required proteins of our interest were separated on SDS-PAGE and transferred into the nitrocellulose membrane. The membrane was incubated with primary antibody and HRP-conjugated secondary antibody in a sequential manner. The ECL kit (EZ-Western Lumi Femto, DOZEN) was used to detect the respective proteins.
# NF-κB-p65 = assay: Immunocytochemistry of p65 nuclear translocation in CML cells; type: cell-based, human; conditions: 4c 30 µM 2 h, then TNFα 0.5 nM 10 min
# Experimental: CML cells (1 × 10^6 cells/well) were treated with 4c (0 or 30 µM) for 2 h, followed by TNFα (0.5 nM) addition for 10 min. Further, the CML cells were fixed, permeabilized, and blocked with 5% BSA-PBS. The cells were visualized by using primary anti-p65 antibodies and secondary antibodies called Alexa Fluor® 594 donkey anti-rabbit IgG (H + L). Nuclei were stained with DAPI, and the immobilized cells were mounted with Fluorescent Mounting Medium (Golden Bridge International Labs, Mukilteo, WA, USA) and finally quantified using an Olympus FluoView FV1000 confocal microscope (Tokyo, Japan).
# [2] = tested on: COX-2 binding to p65 promoter; assay: ChIP assay in CML cells; type: cell-based, human; conditions: 4c 0, 5, 15, 30 µM
# Experimental: CML cells (1 × 10^6 cells/well) were incubated with compound 4c (5, 15, 30 µM) for 24 h and immunoprecipitated with anti-NF-κB p65 antibody. RT-PCR was performed with COX-2 at 94 °C for 5 min, 94 °C for 30 s, 58 °C for 30 s, 72 °C for 30 s with 30 cycles, and extension at 72 for 7 min. All the experiments were performed 3 times as individual repeats.
# MCF-7 cell line = assay: MTT cell viability assay, MCF-7; type: cell-based
# Experimental: (§2) MCF-7 cells were purchased from Procell Life Science and Technology Co., Ltd., Wuhan, China, and cultured in MEM or Leibovitz’s L-15 medium containing 2% FBS. MCF-7 cells were maintained in a 5% CO2-humidified atmosphere at 37 °C. KCL22, LAMA84, and K562 cells were obtained from the American Type Culture Collection (Manassas, VA, USA). The KBM5 cell line was previously provided by Dr. Bharat Aggarwal (University of Texas M.D. Anderson Cancer Center, Houston, TX, USA). KBM5 cells were cultured in IMDM medium with 10% inactivated FBS and 1% penicillin-streptomycin. KCL22, LAMA84, and K562 cells were cultured in RPMI with 10% FBS and 1% penicillin-streptomycin antibiotics and maintained at 37 °C in a 5% CO2 chamber.
# (§3) Cells (1 × 10^4 cells/well) were seeded on a 96-well plate and treated with 4c (0, 5, 10, 15, 30, 50 µM) for 24 h. After 24 h of treatment, 30 µL of MTT solution (2 mg/mL) for 2 h, followed by MTT lysis overnight. Cell viability was analyzed by measuring the absorbance of lysed MTT crystals using VARIOSKAN LUX (Thermo Fisher Scientific Inc., Waltham, MA, USA) at 570 nm.
# [3] = tested on: p-IKKα/β, p-IκBα, phospho-p65; assay: Western blot of NF-κB complex subunits in CML cells; type: cell-based, human; conditions: 4c 30 µM pre-treatment, TNFα 0.5 nM
# Experimental: as §1
# [4] = tested on: CML cells (KMB5, KCL22, LAMA84, and K562 cell lines); assay: MTT cell viability assay, CML cells; type: cell-based, human; conditions: 0, 5, 10, 15, 30, 50 µM, 24 h
# Experimental: as §2, §3
# [5] = MTT cell viability assay, PBMC; type: cell-based; conditions: normal PBMC cells, 30 and 50 µM
# Experimental: as §3
# MCF-10A cells = assay: Cytotoxicity assay, MCF-10A; type: cell-based; conditions: Homo sapiens, MCF-10A; normal mammary epithelial cells
# Experimental: as §3
# NF-κB = assay: EMSA of TNFα-induced NF-κB DNA binding in CML cells; type: cell-based, human; conditions: 4c 0, 5, 15, 30 µM 2 h, then TNFα 0.5 nM 10 min; nuclear extracts
# Experimental: CML cells (1 × 10^6 cells/well) were treated with indicated concentrations of 4c (0, 5, 15, 30 µM) for 2 h, then TNFα (0.5 nM) for 10 min. Nuclei extracts were prepared from whole cell pellets and incubated with NF-κB oligonucleotides (5′-[…]-3′ and 5′-[…]-3′), and Oct-1 (5′-[…]-3′ and 5′-[…] -[…]-3′) was used for loading control. The protein–DNA complex was run on a 5% gel, and the respective proteins were detected using the EMSA kit (Waltham, MA, USA).
smiles,measurement,setting,value
"COc1ccc(Cc2nnc(SCc3cn(-c4ccc(Cl)c(Cl)c4)nn3)o2)cc1 [Compound 4c, 2-(((1-(3,4-Dichlorophenyl)-1H-1,2,3-triazol-4-yl)methyl)thio)-5-(4-methoxybenzyl)-1,3,4-oxadiazole]",cleavage of PARP,[1],enhanced the cleavage of PARP
same,"expression of anti-apoptotic proteins (survivin, MMP-9, Bcl-2/xl, VEGF, COX-2)",[1],suppressed the expression of these proteins
same,translocation of NF-κB-p65 to nuclei,NF-κB-p65,suppressed the translocation of NF-κB-p65 to nuclei
same,p65 binding to the COX-2 promoter,[2],markedly inhibited COX-2 binding to the p65 promoter
same,IC50,"MCF-7 cell line; Homo sapiens, MCF7, viability of MCF-7 cell line",9 to 16 µM
same,IC50,MCF-7 cell line; viability of MCF-7 cell line,7.4 ± 0.87 µM
same,p-IKKα/β and p-IκBα induced by TNFα,[3]; cytoplasmic extracts,inhibited
same,phospho-p65 in nuclei,[3]; nuclear extracts,suppressed phospho-p65 in nuclei
same,cell viability in CML cells,[4],concentration-dependent loss of cell viability
same,viability at 24 h,[5],> 80%
same,IC50,MCF-10A cells,> 100 µM
same,binding of NF-κB to DNA induced by TNFα,NF-κB,substantially inhibited
